The results in this text go back to patent US4777182A, “6-Amidino-2-naphthyl 4-guanidinobenzoate derivatives and pharmaceutical composition containing them” (Torii & Co., Ltd., priority 1984, dated 1988).

Molecules are shown by their SMILES.

Sequence of Plasmin (P00747 97-580 limits assumed, species assumed): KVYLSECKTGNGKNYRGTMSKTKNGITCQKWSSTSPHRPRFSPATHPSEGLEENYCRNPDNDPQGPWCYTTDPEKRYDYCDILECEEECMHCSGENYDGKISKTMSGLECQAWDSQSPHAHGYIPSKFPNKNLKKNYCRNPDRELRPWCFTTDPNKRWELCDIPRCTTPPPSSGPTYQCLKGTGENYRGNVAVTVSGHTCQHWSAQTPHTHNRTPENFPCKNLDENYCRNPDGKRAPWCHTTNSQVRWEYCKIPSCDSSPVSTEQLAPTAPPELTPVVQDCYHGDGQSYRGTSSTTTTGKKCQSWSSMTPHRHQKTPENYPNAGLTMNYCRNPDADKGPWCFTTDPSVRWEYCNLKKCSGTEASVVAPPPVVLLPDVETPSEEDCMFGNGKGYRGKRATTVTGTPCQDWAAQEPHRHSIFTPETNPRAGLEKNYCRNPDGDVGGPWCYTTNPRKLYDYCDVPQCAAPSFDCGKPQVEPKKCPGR
Sequence of Plasmin (P00747 581-810 limits assumed, species assumed): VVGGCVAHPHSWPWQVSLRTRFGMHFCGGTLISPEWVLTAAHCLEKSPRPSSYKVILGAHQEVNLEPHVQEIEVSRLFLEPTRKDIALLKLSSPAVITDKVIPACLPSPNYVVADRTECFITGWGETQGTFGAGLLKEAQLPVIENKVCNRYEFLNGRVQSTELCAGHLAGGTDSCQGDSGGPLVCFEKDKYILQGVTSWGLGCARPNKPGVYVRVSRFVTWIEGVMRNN

For the first assay, the target named is T1, Trypsin (Bos taurus, UniProt P00760).
T1 sequence (P00760 24-246): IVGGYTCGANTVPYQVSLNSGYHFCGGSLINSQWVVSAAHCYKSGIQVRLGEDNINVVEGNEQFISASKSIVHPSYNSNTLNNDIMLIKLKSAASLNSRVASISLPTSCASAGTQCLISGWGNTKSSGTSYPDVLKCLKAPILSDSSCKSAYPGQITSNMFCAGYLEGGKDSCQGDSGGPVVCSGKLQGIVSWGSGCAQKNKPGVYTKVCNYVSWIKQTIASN
The assay is described as follows: Anti-trypsin activity (inhibition of TAME hydrolysis). Type of assay: biochemical. To be noted: read-out: ID50, Trypsin.
For `CN1CCNC1=Nc1ccc(C(=O)Oc2ccc3cc(C(=N)N)ccc3c2)cc1` [compound 3], the IC50 amounted to 300 nM.
For the compound `CC1CNC(Nc2ccc(C(=O)Oc3ccc4cc(C(=N)N)ccc4c3)cc2)=N1` (stereo not drawn) [compound 4], the IC50 was found to be 3000 nM.
For `N=C(N)c1ccc2cc(OC(=O)c3ccc(NC4=NCCCN4)cc3)ccc2c1` [compound 5], the IC50 was determined as 6000 nM.
Same read-out and setting: the value for `N=C(N)c1ccc2cc(OC(=O)c3ccc(NC4=NC5CCCCC5N4)cc3)ccc2c1` (stereo not drawn) [compound 6] was 2000 nM; that for `N=C(N)c1ccc2cc(OC(=O)c3ccc(Nc4ncc[nH]4)cc3)ccc2c1` [compound 7] was 600 nM.
`CNC(=N)Nc1ccc(C(=O)Oc2ccc3cc(C(=N)N)ccc3c2)cc1` [compound 8]: the IC50 is 4000 nM.

Another assay addresses Plasmin (Homo sapiens, UniProt P00747). Put plainly: Anti-plasmin activity (inhibition of TAME hydrolysis). The format is biochemical. To be noted: TAME hydrolysis; read-out: ID50, Plasmin.
In the case of `CN1CCNC1=Nc1ccc(C(=O)Oc2ccc3cc(C(=N)N)ccc3c2)cc1` [compound 3], the IC50 came to 1000 nM.
Take `CC1CNC(Nc2ccc(C(=O)Oc3ccc4cc(C(=N)N)ccc4c3)cc2)=N1` (stereo not drawn) [compound 4]: the IC50 came to 1000 nM.
In the case of `N=C(N)c1ccc2cc(OC(=O)c3ccc(NC4=NCCCN4)cc3)ccc2c1` [compound 5], the IC50 came to 1000 nM.
`N=C(N)c1ccc2cc(OC(=O)c3ccc(NC4=NC5CCCCC5N4)cc3)ccc2c1` (stereo not drawn) [compound 6]: the IC50 amounted to 3000 nM.
As to `N=C(N)c1ccc2cc(OC(=O)c3ccc(Nc4ncc[nH]4)cc3)ccc2c1` [compound 7], the IC50 came to 5000 nM.
As to `CNC(=N)Nc1ccc(C(=O)Oc2ccc3cc(C(=N)N)ccc3c2)cc1` [compound 8], the IC50 came out at 3000 nM.

A further assay concerns Kallikrein. Put plainly: Anti-kallikrein activity (inhibition of TAME hydrolysis). The format is biochemical. To be noted: read-out: ID50, Kallikrein.
On to `CN1CCNC1=Nc1ccc(C(=O)Oc2ccc3cc(C(=N)N)ccc3c2)cc1` [compound 3], for which the IC50 came to 600 nM.
In the case of `CC1CNC(Nc2ccc(C(=O)Oc3ccc4cc(C(=N)N)ccc4c3)cc2)=N1` (stereo not drawn) [compound 4], the IC50 is 400 nM.
For the compound `N=C(N)c1ccc2cc(OC(=O)c3ccc(NC4=NCCCN4)cc3)ccc2c1` [compound 5], the IC50 amounted to 500 nM.
In the case of `N=C(N)c1ccc2cc(OC(=O)c3ccc(NC4=NC5CCCCC5N4)cc3)ccc2c1` (stereo not drawn) [compound 6], the IC50 was determined as 900 nM.
Turning to `N=C(N)c1ccc2cc(OC(=O)c3ccc(Nc4ncc[nH]4)cc3)ccc2c1` [compound 7], the IC50 amounted to 4000 nM.
With `CNC(=N)Nc1ccc(C(=O)Oc2ccc3cc(C(=N)N)ccc3c2)cc1` [compound 8], the IC50 was found to be 3000 nM.

For the next assay, the target named is Thrombin (Homo sapiens, UniProt P00734). Put plainly: biochemical. To be noted: TAME hydrolysis; read-out: ID50, Thrombin.
On to `CN1CCNC1=Nc1ccc(C(=O)Oc2ccc3cc(C(=N)N)ccc3c2)cc1` [compound 3], for which the IC50 stood at 800 nM.
Take `CC1CNC(Nc2ccc(C(=O)Oc3ccc4cc(C(=N)N)ccc4c3)cc2)=N1` (stereo not drawn) [compound 4]: the IC50 is 2000 nM.
As to `N=C(N)c1ccc2cc(OC(=O)c3ccc(NC4=NCCCN4)cc3)ccc2c1` [compound 5], the IC50 worked out at 2000 nM.
`N=C(N)c1ccc2cc(OC(=O)c3ccc(NC4=NC5CCCCC5N4)cc3)ccc2c1` (stereo not drawn) [compound 6]: the IC50 was found to be 2000 nM.
Take `N=C(N)c1ccc2cc(OC(=O)c3ccc(Nc4ncc[nH]4)cc3)ccc2c1` [compound 7]: the IC50 was determined as 6000 nM.
Consider `CNC(=N)Nc1ccc(C(=O)Oc2ccc3cc(C(=N)N)ccc3c2)cc1` [compound 8], for which the IC50 turned out to be 60 nM.

For another assay, the target named is T2, C1r (Homo sapiens, UniProt P00736).
T2 sequence (P00736 18-463 limits assumed): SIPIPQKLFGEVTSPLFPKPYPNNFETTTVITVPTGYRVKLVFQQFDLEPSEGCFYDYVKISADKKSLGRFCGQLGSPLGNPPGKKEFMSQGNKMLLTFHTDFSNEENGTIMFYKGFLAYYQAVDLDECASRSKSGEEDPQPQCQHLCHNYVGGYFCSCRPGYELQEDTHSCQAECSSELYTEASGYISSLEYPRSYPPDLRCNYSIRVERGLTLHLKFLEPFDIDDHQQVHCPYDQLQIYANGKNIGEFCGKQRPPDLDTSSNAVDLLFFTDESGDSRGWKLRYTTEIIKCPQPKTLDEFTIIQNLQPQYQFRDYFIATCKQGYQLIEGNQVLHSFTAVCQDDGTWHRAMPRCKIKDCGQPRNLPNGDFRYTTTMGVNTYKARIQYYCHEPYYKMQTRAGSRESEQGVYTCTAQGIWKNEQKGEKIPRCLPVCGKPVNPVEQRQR
T2 sequence (P00736 464-705 limits assumed): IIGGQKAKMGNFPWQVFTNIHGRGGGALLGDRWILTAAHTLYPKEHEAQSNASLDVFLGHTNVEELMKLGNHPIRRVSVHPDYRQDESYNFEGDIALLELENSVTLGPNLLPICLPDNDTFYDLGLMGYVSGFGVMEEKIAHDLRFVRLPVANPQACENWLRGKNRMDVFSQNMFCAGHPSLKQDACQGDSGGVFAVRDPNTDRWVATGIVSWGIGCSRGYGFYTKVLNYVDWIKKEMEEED
Put plainly: Anti-C1r activity (inhibition of AAME hydrolysis). The format is biochemical. To be noted: AAME hydrolysis; read-out: ID50, C1r. As for the experimental part:
The anti-C1 esterase (C1r, C1s) activity was determined according to the method of Okamura et al. [K. Okamura, M. Muramatsu and B. Fujii, Biochem. Biophys. Acta, 295, 252-257 (1973)]. (2) The inhibition of complement mediated hemolysis was determined according to the method of Baker et al. [B. R. Baker and E. H. Erickson, J. Med. Chem., 12, 408-414 (1969)]. The figures in Table 2 have the following meanings: C1r: […]
As to `CC1CNC(Nc2ccc(C(=O)Oc3ccc4cc(C(=N)N)ccc4c3)cc2)=N1` (stereo not drawn) [compound 4], the IC50 is 10 µM.
On to `N=C(N)c1ccc2cc(OC(=O)c3ccc(NC4=NC5CCCCC5N4)cc3)ccc2c1` (stereo not drawn) [compound 6], for which the IC50 is 9 µM.
`N=C(N)c1ccc2cc(OC(=O)c3ccc(Nc4ncc[nH]4)cc3)ccc2c1` [compound 7]: the IC50 came out at 3 µM.

Staying with this assay, now noted: at 1×10^-5 M; read-out: percent inhibition, C1r (figure in parentheses).
The term inhibition denotes the relative decrease from the control value, in per cent. For the compound `CN1CCNC1=Nc1ccc(C(=O)Oc2ccc3cc(C(=N)N)ccc3c2)cc1` [compound 3], the inhibition at 10 µM worked out at 38%.
Turning to `N=C(N)c1ccc2cc(OC(=O)c3ccc(NC4=NCCCN4)cc3)ccc2c1` [compound 5], the inhibition at 10 µM is 41%.
Regarding `CNC(=N)Nc1ccc(C(=O)Oc2ccc3cc(C(=N)N)ccc3c2)cc1` [compound 8], the inhibition at 10 µM is 47%.

A further assay deals with T3, C1s (Homo sapiens, UniProt P09871).
T3 sequence (P09871 16-437 limits assumed): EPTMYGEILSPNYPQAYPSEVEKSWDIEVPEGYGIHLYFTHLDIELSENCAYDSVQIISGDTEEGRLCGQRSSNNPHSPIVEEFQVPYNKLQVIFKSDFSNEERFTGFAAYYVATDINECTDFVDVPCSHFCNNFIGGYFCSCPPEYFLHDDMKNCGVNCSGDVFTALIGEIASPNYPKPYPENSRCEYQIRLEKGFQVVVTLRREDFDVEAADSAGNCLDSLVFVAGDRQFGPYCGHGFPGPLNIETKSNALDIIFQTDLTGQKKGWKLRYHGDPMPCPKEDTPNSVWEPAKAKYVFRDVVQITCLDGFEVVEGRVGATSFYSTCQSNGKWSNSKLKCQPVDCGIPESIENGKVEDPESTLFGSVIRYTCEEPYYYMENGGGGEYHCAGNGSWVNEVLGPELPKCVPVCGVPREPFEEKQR
T3 sequence (P09871 438-688 limits assumed): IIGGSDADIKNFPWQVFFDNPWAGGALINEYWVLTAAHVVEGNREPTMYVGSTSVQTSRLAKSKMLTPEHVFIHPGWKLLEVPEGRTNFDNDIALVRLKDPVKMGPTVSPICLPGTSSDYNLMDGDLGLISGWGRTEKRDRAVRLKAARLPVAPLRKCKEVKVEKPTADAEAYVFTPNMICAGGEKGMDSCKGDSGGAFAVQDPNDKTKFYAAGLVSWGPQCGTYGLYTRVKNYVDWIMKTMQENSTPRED
The assay is described as follows: Anti-C1s activity (inhibition of ATEE hydrolysis). The format is biochemical. To be noted: read-out: ID50, C1s. As for the experimental part: The anti-C1 esterase (C1r, C1s) activity was determined according to the method of Okamura et al. [K. Okamura, M. Muramatsu and B. Fujii, Biochem. Biophys. Acta, 295, 252-257 (1973)]. (2) The inhibition of complement mediated hemolysis was determined according to the method of Baker et al. [B. R. Baker and E. H. Erickson, J. Med. Chem., 12, 408-414 (1969)]. The figures in Table 2 have the following meanings:
C1s: Molar concentration of the test compound which inhibits 50% of the ability of C1s to hydrolyse ATEE (acetyltyrosin ethyl ester) (ID50).
Take `CN1CCNC1=Nc1ccc(C(=O)Oc2ccc3cc(C(=N)N)ccc3c2)cc1` [compound 3]: the IC50 was 300 nM.
Regarding `CC1CNC(Nc2ccc(C(=O)Oc3ccc4cc(C(=N)N)ccc4c3)cc2)=N1` (stereo not drawn) [compound 4], the IC50 stood at 400 nM.
In the case of `N=C(N)c1ccc2cc(OC(=O)c3ccc(NC4=NCCCN4)cc3)ccc2c1` [compound 5], the IC50 was determined as 300 nM.
With `N=C(N)c1ccc2cc(OC(=O)c3ccc(NC4=NC5CCCCC5N4)cc3)ccc2c1` (stereo not drawn) [compound 6], the IC50 was 400 nM.
Still for that read-out and setting: for `N=C(N)c1ccc2cc(OC(=O)c3ccc(Nc4ncc[nH]4)cc3)ccc2c1` [compound 7] the value was 300 nM; for `CNC(=N)Nc1ccc(C(=O)Oc2ccc3cc(C(=N)N)ccc3c2)cc1` [compound 8], 2000 nM.

The subject of the next assay is complement mediated hemolysis. The assay is described as follows: Inhibition of complement mediated hemolysis. Type of assay: cell-based. To be noted: 1 × 10^-5.
From the text: Therefore, when a known amount of complement admixed with a C1 esterase inhibitor is used, the hemolysis must be suppressed in proportion to the inhibitory activity.
For the compound `CN1CCNC1=Nc1ccc(C(=O)Oc2ccc3cc(C(=N)N)ccc3c2)cc1` [compound 3], the “Inhibition of complement mediated hemolysis (%)” value (from here on “Inhibition … (%)”) came out at 93%.
For `CC1CNC(Nc2ccc(C(=O)Oc3ccc4cc(C(=N)N)ccc4c3)cc2)=N1` (stereo not drawn) [compound 4], the “Inhibition … (%)” value is reported as 100%.
`N=C(N)c1ccc2cc(OC(=O)c3ccc(NC4=NCCCN4)cc3)ccc2c1` [compound 5]: the “Inhibition … (%)” value is recorded as 98%.
With `N=C(N)c1ccc2cc(OC(=O)c3ccc(NC4=NC5CCCCC5N4)cc3)ccc2c1` (stereo not drawn) [compound 6], the “Inhibition … (%)” value worked out at 100%.
On the same count and under the same terms, the value for `N=C(N)c1ccc2cc(OC(=O)c3ccc(Nc4ncc[nH]4)cc3)ccc2c1` [compound 7] was 96%.
Regarding `CNC(=N)Nc1ccc(C(=O)Oc2ccc3cc(C(=N)N)ccc3c2)cc1` [compound 8], the “Inhibition … (%)” value was 100%.

The assay is the same for the next values; noted with them: 1 × 10^-6.
`CN1CCNC1=Nc1ccc(C(=O)Oc2ccc3cc(C(=N)N)ccc3c2)cc1` [compound 3]: the “Inhibition … (%)” value turned out to be 25%.
With `CC1CNC(Nc2ccc(C(=O)Oc3ccc4cc(C(=N)N)ccc4c3)cc2)=N1` (stereo not drawn) [compound 4], the “Inhibition … (%)” value came out at 96%.
In the case of `N=C(N)c1ccc2cc(OC(=O)c3ccc(NC4=NCCCN4)cc3)ccc2c1` [compound 5], the “Inhibition … (%)” value was 83%.
For `N=C(N)c1ccc2cc(OC(=O)c3ccc(NC4=NC5CCCCC5N4)cc3)ccc2c1` (stereo not drawn) [compound 6], the “Inhibition … (%)” value is 100%.
In the case of `N=C(N)c1ccc2cc(OC(=O)c3ccc(Nc4ncc[nH]4)cc3)ccc2c1` [compound 7], the “Inhibition … (%)” value was 46%.
Take `CNC(=N)Nc1ccc(C(=O)Oc2ccc3cc(C(=N)N)ccc3c2)cc1` [compound 8]: the “Inhibition … (%)” value is recorded as 93%.

The same assay, now with this note: 1 × 10^-7.
Consider `CN1CCNC1=Nc1ccc(C(=O)Oc2ccc3cc(C(=N)N)ccc3c2)cc1` [compound 3], for which the “Inhibition … (%)” value is 0%.
Same read-out and setting: for `CC1CNC(Nc2ccc(C(=O)Oc3ccc4cc(C(=N)N)ccc4c3)cc2)=N1` (stereo not drawn) [compound 4] the value was 48%.
For `N=C(N)c1ccc2cc(OC(=O)c3ccc(NC4=NCCCN4)cc3)ccc2c1` [compound 5], the “Inhibition … (%)” value stood at 5%.
As for `N=C(N)c1ccc2cc(OC(=O)c3ccc(NC4=NC5CCCCC5N4)cc3)ccc2c1` (stereo not drawn) [compound 6], the “Inhibition … (%)” value is listed as 75%.
For the compound `N=C(N)c1ccc2cc(OC(=O)c3ccc(Nc4ncc[nH]4)cc3)ccc2c1` [compound 7], the “Inhibition … (%)” value amounted to 4%.
Consider `CNC(=N)Nc1ccc(C(=O)Oc2ccc3cc(C(=N)N)ccc3c2)cc1` [compound 8], for which the “Inhibition … (%)” value amounted to 34%.
